Results: patent US9051279B2, “Substituted isoquinolinones and quinazolinones” (Novartis AG, priority 2009, dated 2015)

Assay: Solubility and stability of crystalline sulphate salt form I compared to free base amorphous form
Assay type: physicochemical
Settings: compared to the free base amorphous form

## COc1cc2c(cc1OC(C)C)[C@H](c1ccc(Cl)cc1)N(c1ccc(N(C)C[C@H]3CC[C@H](N4CCN(C)C(=O)C4)CC3)cc1)C(=O)C2.O=S(=O)(O)O [(S)-1-(4-Chloro-phenyl)-7-isopropoxy-6-methoxy-2-(4-{methyl-[4-(4-methyl-3-oxo-piperazin-1-yl)-trans-cyclohexylmethyl]-amino}-phenyl)-1,4-dihydro-2H-isoquinolin-3-one sulphate salt]
  solubility: improvements
  stability: improvements
